Experiments:
[1] = format: physicochemical; conditions: pH 11.03
Method: Polymer-polymer aqueous two-phase systems were prepared using maltodextrin (mdx) in combination with PEG 4000 and PEG 8000. […] Demineralised water was added to yield a net weight of 200 g of solution.
Control/base solutions were prepared to be used as a baseline in the spectrophotometer by preparing the same solutions described above, but without resveratrol.
The aqueous two-phase systems were formed by continuously stirring the solutions using a magnetic stirrer for 30 minutes. […] In both the extraction solution and in the base solution two distinct phases were formed. 1 ml of the bottom phase of the extraction solution was separated from the system using a pipette tapped into an Erlenmeyer flask and 1 ml of the bottom phase of the blank solution was poured into a separate Erlenmeyer flask. The solutions were diluted by adding 50 ml of demineralised water to each.
Cuvettes containing the base solution were placed in the spectrophotometer and the system baselined. One of the cuvettes was then removed, rinsed with the diluted top phase of the extraction solution, and filled with the solution. […] The absorbance at the peak was then used to quantify the resveratrol content.
The resveratrol content of the top phase was quantified using the same methodology as for the bottom phase, using the top phase of the base solution to baseline the spectrophotometer. […]

[2] = Partitioning of resveratrol from biomass (grape pomace) in polymer-salt (PEG-salt) aqueous two-phase system; format: physicochemical
Excerpt: The partitioning of the polyphenolic biomolecule can be quantified using parameters such as the partition coefficient (K) and the yield (Y). The partition coefficient reflects the extent of separation of the polyphenolic compound into the polymer phase. It is defined as the ratio of […]. Partition coefficients of more than 1 indicate a higher concentration of the specific molecule in the top phase. The partition coefficient (K) is calculated with equation 5 in which cT is the concentration of the molecule in the top phase and CB is the concentration of the molecule in the bottom phase. K = (CT)/(CB) [formula]
Polymer-salt aqueous two-phase systems with PEG of different molecular weights were prepared using PEG 400 (Mw =400 g/mol), PEG 1000 (Mw =1000 g/mol), PEG 4000 (Mw =4000 g/mol), PEG 8000 (Mw =8000 g/mol), and PEG 10000 (Mw =10 000 g/mol).
Two different ATP systems with different polymer and salt concentrations were investigated. System A contains 11 wt% PEG and 26 wt% ammonium sulphate and system B contains 13 wt% PEG and 13 wt% ammonium sulphate. Table 2. Quantities of materials used to extract resveratrol in systems A and B
20 ml pomace was added to a polymer-salt ATP systems comprising 20 ml water, 5 g PEG 8000 (11 wt%) and 2.5 g (7 wt%), 5 g (13 wt%), 8 g (19 wt%) and 12 g (26 wt%) ammonium salt, respectively.
20 ml pomace was added to a polymer-salt ATP systems comprising 11 wt% PEG 8000 and 26 wt% tartrate, citrate, sulphate and phosphate salt solutions (20 ml water), respectively. The partition coefficient and percentage extraction of resveratrol to the PEG top phase was determined for each of the different types of salts.
The bottom phase of the ATPS (consisting of the salt solution) therefore only contained trace amounts of resveratrol, with the remaining resveratrol still contained in the biomass. It was therefore assumed that within the bottom phases exiting the polymer-salt ATPS reactor, that the remaining resveratrol that was not extracted would be contained within the raw biomass of grape pomace and canes, and not in the salt solution.

[3] = as above; format: physicochemical; conditions: about 10% (w/w) PEG 8000 and about 15% (w/w) tartrate salt; raw biomass
[4] = water; cited from earlier work

- partition coefficient of the system [1]: 1.36
- Partition Coefficient ([2]; 11 wt% PEG 8000, Ammonium sulphate, 25,5 wt% salt, to PEG top phase): 351
- Partition Coefficient ([2]; 11 wt% PEG 8000, Potassium hydrogen phosphate trihydrate, 25,5 wt% salt, to PEG top phase): 218
- Partition Coefficient ([2]; 11 wt% PEG 8000, Potassium sodium tartrate tetrahydrate, 25,5 wt% salt, to PEG top phase): 177
- Partition Coefficient ([2]; 11 wt% PEG 8000, Tri-sodium citrate dihydrate, 25,5 wt% salt, to PEG top phase): 79
- Partition Coefficient ([2]; PEG 8000 (11 wt%), 7 wt% ammonium sulphate, to PEG top phase): 78
- Partition Coefficient ([2]; PEG 8000 (11 wt%), 13 wt% ammonium sulphate, to PEG top phase): 242
- Partition Coefficient ([2]; PEG 8000 (11 wt%), 19 wt% ammonium sulphate, to PEG top phase): 334
- Partition Coefficient ([2]; PEG 8000 (11 wt%), 26 wt% ammonium sulphate, to PEG top phase): 351
- Partition Coefficient ([2]; System A: 11 wt% PEG, 26 wt% ammonium sulphate, PEG 400, to PEG top phase): 164
- Partition Coefficient ([2]; System A: 11 wt% PEG, 26 wt% ammonium sulphate, PEG 1000, to PEG top phase): 177
- Partition Coefficient ([2]; System A: 11 wt% PEG, 26 wt% ammonium sulphate, PEG 4000, to PEG top phase): 341
- Partition Coefficient ([2]; System A: 11 wt% PEG, 26 wt% ammonium sulphate, PEG 8000, to PEG top phase): 351
- Partition Coefficient ([2]; System A: 11 wt% PEG, 26 wt% ammonium sulphate, PEG 10000, to PEG top phase): 174
- Partition Coefficient ([2]; System B: 13 wt% PEG, 13 wt% ammonium sulphate, PEG 4000, to PEG top phase): 33
- Partition Coefficient ([2]; System B: 13 wt% PEG, 13 wt% ammonium sulphate, PEG 8000, to PEG top phase): 242
- Partition Coefficient ([2]; System B: 13 wt% PEG, 13 wt% ammonium sulphate, PEG 10000, to PEG top phase): 200
- resveratrol partitioning to the top phase [3]: 99.6%
Structure (SMILES): Oc1ccc(C=Cc2cc(O)cc(O)c2)cc1 [resveratrol]
- aqueous solubility [4]: 3 mg/100 ml

Reference: patent EP3760291B1 (Stellenbosch University, priority 2019, dated 2021)
